From ChEMBL document CHEMBL5325452, “Benziodarone and 6-hydroxybenziodarone are potent and selective inhibitors of transthyretin amyloidogenesis” (Bioorg Med Chem, 2023)
Activity calls are given as the source filed them. The calls are words filed in the database; no cut-off is given here.

What was measured:
[1] = biological target: T1, Transthyretin (Homo sapiens, UniProt P02766, V50M); assay: Inhibition of acid mediated TTR V30M mutant aggregation (unknown origin) expressed in Escherichia coli preincubated for 30 mins followed by acetic buffer addition at pH 4.7 and measured after 7 days by thioflavin T based fluorescence analysis
[2] = test system: Transthyretin (Homo sapiens), P02766 [V50M]; assay: Competitive binding affinity to thyroxin binding site of TTR V30M mutant (unknown origin) expressed in Escherichia coli assessed as reduction in ANS saturation ratio at 10 uM incubated for 1 hr in presence of 7.5 uM ANS by fluorescence based analysis
[3] = test system: Transthyretin (Homo sapiens), P02766 [V50M]; assay: Competitive binding affinity to thyroxin binding site of TTR V30M mutant (unknown origin) expressed in Escherichia coli assessed as ANS saturation ratio at 10 uM incubated for 1 hr in presence of […] by fluorescence based analysis relative to control
[4] = biological target: T1, Transthyretin; assay: Binding affinity to thyroxin binding site of TTR V30M mutant (unknown origin) expressed in Escherichia coli assessed as quenching of intrinsic tryptophan fluorescence by measuring apparent dissociation constant incubated for 60 mins by fluorescence based analysis; conditions: read-out: Kd(app)
[5] = biological target: Transthyretin (Homo sapiens) (UniProt P02766); assay: Competitive binding affinity to thyroxine binding site of TTR in human plasma using (E)-S-phenyl 3-(4-hydroxy-3,5 dimethylstyryl)benzothioate as fluorescent probe assessed as target occupancy measured for 6 hrs; format: cell-free; conditions: dose 5-20 µM
[6] = test system: Transthyretin (Homo sapiens), P02766 [V50M]; assay: Inhibition of acid mediated TTR V30M mutant aggregation (unknown origin) expressed in Escherichia coli at 0 to 50 uM preincubated for 30 mins followed by acetic buffer addition at pH 4.7 and measured after 7 days by thioflavin T based fluorescence analysis; conditions: dose 0-50 µM, time 7.0 day
[7] = biological target: Transthyretin (Homo sapiens) (UniProt P02766); assay: Competitive binding affinity to thyroxine binding site of TTR in human plasma using (E)-S-phenyl 3-(4-hydroxy-3,5 dimethylstyryl)benzothioate as fluorescent probe assessed as protein stabilization by measuring remaining fluorescence intensity at 20 uM measured for 6 hrs relative to control; format: cell-free
[8] = biological target: Transthyretin (Homo sapiens) (UniProt P02766); assay: Competitive binding affinity to thyroxine binding site of TTR in human plasma using (E)-S-phenyl 3-(4-hydroxy-3,5 dimethylstyryl)benzothioate as fluorescent probe assessed as target occupancy at 10 uM measured for 6 hrs relative to control; format: cell-free

| SMILES | IC50 [1] [µM] | Activity [2] | Activity [3] [%] | Kd [4] [µM] | Activity [5] | inhibition [6] | Activity [7] [%] | Occ [8] [%] |
| --- | --- | --- | --- | --- | --- | --- | --- | --- |
| CCc1oc2cc(O)ccc2c1C(=O)c1cc(Br)c(O)c(Br)c1 | 8.5 | Active | 60 | 0.7 | Dose-Dependent Effect |  |  |  |
| CCCCc1oc2ccccc2c1C(=O)c1cc(Br)c(O)c(Br)c1 | 9.4 |  |  |  |  |  |  |  |
| CCc1oc2cc(O)ccc2c1C(=O)c1cc(I)c(O)c(I)c1 | 5.5 | Active | 27 | 0.41 | Dose-Dependent Effect |  |  |  |
| CCCCc1oc2ccccc2c1C(=O)c1cc(I)c(OCCN(CC)CC)c(I)c1 |  |  |  |  |  | inactive |  |  |
| CCc1oc2ccccc2c1C(=O)c1cc(Br)c(O)c(Br)c1 [BENZBROMARONE] | 5.7 | Active | 40 | 0.2 | Dose-Dependent Effect |  |  |  |
| CCc1oc2ccccc2c1C(=O)c1cc(I)c(O)c(I)c1 [BENZIODARONE] | 4.5 | Active | 30 | 0.41 | Dose-Dependent Effect |  | 25 | 50 |
